The text below walks through data of patent US8551999B2, “Heterocyclic compound and pharmaceutical composition thereof” (Otsuka Pharmaceutical Co., Ltd., priority 2007, dated 2013).

The melting point is the temperature, or range, at which the solid turns liquid. The molecule `Br.CCN(C(=S)Nc1ccc(Cl)c(Cl)c1)c1ccc(Oc2ccc3c(c2)cc(C(=O)N2CCN(Cc4ccccc4)CC2)n3C)nc1` [Example 581, 1-{6-[2-(4-Benzylpiperazine-1-carbonyl)-1-methyl-1H-indol-5-yl-oxy]pyridin-3-yl}-3-(3,4-dichlorophenyl)-1-ethylthiourea hydrobromide] had a melting point of 163 to 168 °C.
Next, `Br.CN(c1ccc(C(F)(F)F)cc1)c1ccc(Oc2ccc3c(c2)cc(C(=O)N2CCN(Cc4ccncc4)CC2)n3C)nc1` [Example 337, (1-Methyl-5-{5-[methyl(4-trifluoromethylphenyl)amino]pyridin-2-yloxy}-1H-indol-2-yl)(4-pyridin-4-ylmethylpiperazin-1-yl)-methanone hydrobromide]: 167 to 174 °C; `Br.CCCc1ccc(CN2CCN(C(=O)c3cc4ccc(Oc5ccc(N(C)C(=O)c6ccc(C(F)(F)F)cc6)cn5)cc4n3C)CC2)cc1` [Example 431, N-Methyl-N-(6-{1-methyl-2-[4-(4-propylbenzyl)piperazine-1-carbonyl]-1H-indol-6-yloxy}pyridin-3-yl)-4-trifluoromethyl-benzamide hydrobromide]: 255 to 257 °C; `Cl.Cn1c(C(=O)N2CCN(Cc3ccc(OC(F)F)cc3)CC2)cc2ccc(Oc3ccc(NC(=O)c4ccc(C(F)(F)F)cc4F)cn3)cc21`: 265.3 to 265.8 °C.
As to `COc1ccc(CN2CCN(C(=O)c3cc4cc(Oc5ccc(N(C)C(=O)c6cc7cc(Br)ccc7[nH]6)cn5)ccc4n3C)CC2)cc1.O=C(O)/C=C\C(=O)O` [Example 229, 5-Bromo-1H-indole-2-carboxylic acid (6-{2-[4-(4-methoxybenzyl)-piperazine-1-carbonyl]-1-methyl-1H-indol-5-yloxy}pyridin-3-yl)-methylamide maleate], the melting point was in the range of 205 to 207 °C.
In turn, `Br.CC(C)Oc1ccc(CN2CCN(C(=O)c3cc4ccc(Oc5ccc(N(C)C(=O)c6ccc(C(F)(F)F)cc6Cl)cn5)cc4n3C)CC2)cc1` [Example 451, 2-Chloro-N-(6-{2-[4-(4-isopropoxybenzyl)piperazine-1-carbonyl]-1-methyl-1H-indol-6-yloxy}pyridin-3-yl)-N-methyl-4-trifluoromethyl-benzamide hydrobromide] registered a melting point of 248.3 to 252.3 °C.
In turn, `Cc1ccc(S(=O)(=O)N(C)c2ccc(Oc3ccc4cc(C(=O)N5CCN(Cc6ccc(OCCF)cc6)CC5)n(C)c4c3)nc2)cc1` [Example 531, N-[6-(2-{4-[4-(2-Fluoroethoxy)benzyl]piperazine-1-carbonyl}-1-methyl-1H-indol-6-yloxy)pyridin-3-yl]-4,N-dimethylbenzene-sulfonamide] came in with a melting point of 138.7 to 139.8 °C.
In turn, `Br.Cn1c(C(=O)N2CCN(Cc3ccc(OCC(F)(F)F)cc3)CC2)cc2ccc(Oc3ccc(NC(=O)c4ccc(C(F)(F)F)cc4)cn3)cc21` [Example 474, N-[6-(1-Methyl-2-{4-[4-(2,2,2-trifluoroethoxy)benzyl]piperazine-1-carbonyl}-1H-indol-6-yloxy)pyridin-3-yl]-4-trifluoromethyl-benzamide hydrobromide] came in with a melting point of 269 to 270.3 °C.
In the case of `Br.CCOc1ccc(CN2CCN(C(=O)c3cc4cc(Oc5ccc(NC(=O)c6ccc(C(F)(F)F)cc6)cn5)ccc4n3C)CC2)cc1OCC` [Example 340, N-(6-{2-[4-(3,4-Diethoxybenzyl)piperazine-1-carbonyl]-1-methyl-1H-indol-5-yloxy}pyridin-3-yl)-4-trifluoromethylbenzamide hydrobromide], the melting point lay within 196 to 198 °C.
Molecule `Cc1ccc(C(=O)N(C)c2ccc(Oc3ccc4cc(C(=O)N5CCN(Cc6ccc(OCC(F)F)cc6)CC5)n(C)c4c3)nc2)cc1.Cl` had a melting point of 207.8 to 209.3 °C.
In the case of `CN(c1ccc(Oc2ccc3cc(C(=O)N4CCN(Cc5ccc(OCC(F)(F)F)cc5)CC4)[nH]c3c2)nc1)S(=O)(=O)c1ccc(C(F)(F)F)cc1` [Example 39, N-Methyl-N-[6-(2-{4-[4-(2,2,2-trifluoroethoxy)benzyl]piperazine-1-carbonyl}-1H-indol-6-yloxy)pyridin-3-yl]-4-trifluoromethyl-benzenesulfonamide], the melting point was in the range of 200.1 to 200.2 °C.
Take `O=C(CN1CCc2cc(Oc3ccc(NS(=O)(=O)c4ccc(Cl)c(Cl)c4)cn3)ccc21)N1CCN(Cc2ccc3c(c2)OCO3)CC1` [Example 64, N-(6-{1-[2-(4-Benzo[1,3]dioxol-5-ylmethylpiperazin-1-yl)-2-oxo-ethyl]-2,3-dihydro-1H-indol-5-yloxy}pyridin-3-yl)-3,4-dichloro-benzenesulfonamide]: the melting point is 152 to 153 °C.
Next, `Br.Cn1c(C(=O)N2CCN(Cc3ccc(OCC(F)(F)F)cc3)CC2)cc2ccc(Oc3ccc(NC(=O)c4ccc(Cl)c(Cl)c4)cn3)cc21` [Example 465, 3,4-Dichloro-N-[6-(1-methyl-2-{4-[4-(2,2,2-trifluoroethoxy)-benzyl]piperazine-1-carbonyl}-1H-indol-6-yloxy)pyridin-3-yl]-benzamide hydrobromide]: 251.8 to 253.5 °C; `Br.COc1ccc(CN2CCN(C(=O)c3cc4ccc(Oc5ccc(NC(=O)c6ccc(Cl)c(Cl)c6)cn5)cc4n3C)CC2)cc1` [Example 258, 3,4-Dichloro-N-(6-{2-[4-(4-methoxybenzyl)piperazine-1-carbonyl]-1-methyl-1H-indol-6-yloxy}pyridin-3-yl)benzamide hydrobromide]: 234.6 to 237.2 °C.
Then `CCCOc1ccc(CN2CCN(C(=O)c3cc4ccc(Oc5ccc(N(C)S(=O)(=O)c6ccc(C)cc6)cn5)cc4n3C)CC2)cc1` [Example 32, 4,N-Dimethyl-N-(6-{1-methyl-2-[4-(4-propoxybenzyl)piperazine-1-carbonyl]-1H-indol-6-yloxy}pyridin-3-yl)benzenesulfonamide], with 135.9 to 136.8 °C.
Consider `COc1ccc(CN2CCN(C(=O)c3cc4cc(Oc5ccc(N(C)C(=O)c6ccc(OC(F)(F)F)cc6)cn5)ccc4n3C)CC2)cc1.O=C(O)/C=C\C(=O)O` [Example 18, N-(6-{2-[4-(4-Methoxybenzyl)piperazine-1-carbonyl]-1-methyl-1H-indol-5-yloxy}pyridin-3-yl)-N-methyl-4-trifluoromethoxybenzamide maleate], for which the melting point was 147 to 148 °C.
Then `CN(C(=O)c1ccc(C(F)(F)F)cc1F)c1ccc(Oc2ccc3cc(C(=O)N4CCN(Cc5ccc(OC(F)F)cc5)CC4)n(C)c3c2)nc1.Cl`, with 228.7 to 230.4 °C.
Then `Br.CCOc1ccc(CN2CCN(C(=O)c3cc4cc(Oc5cc(C)c(NC(=O)c6ccc(Cl)c(Cl)c6)cn5)ccc4n3C)CC2)cc1` [Example 364, 3,4-Dichloro-N-(6-{2-[4-(4-ethoxybenzyl)piperazine-1-carbonyl]-1-methyl-1H-indol-5-yloxy}-4-methylpyridin-3-yl)benzamide hydrobromide], with 197 to 199 °C.
Next, `CCCOc1ccc(CN2CCN(C(=O)c3cc4cc(Oc5ccc(N(C)C(=O)c6ccc(C(F)(F)F)cc6)cn5)ccc4n3C)CC2)cc1.O=C(O)/C=C\C(=O)O` [Example 413, N-Methyl-N-(6-{1-methyl-2-[4-(4-propoxybenzyl)piperazine-1-carbonyl]-1H-indol-5-yloxy}pyridin-3-yl)-4-trifluoromethyl-benzamide maleate]: 144 to 147 °C.
The molecule `Br.Cn1c(C(=O)N2CCN(Cc3ccc(OCC(F)F)cc3)CC2)cc2cc(Oc3ccc(NC(=O)c4ccc(C(F)(F)F)cc4)cn3)ccc21` [Example 462, N-[6-(2-{4-[4-(2,2-Difluoroethoxy)benzyl]piperazine-1-carbonyl}-1-methyl-1H-indol-5-yloxy)pyridin-3-yl]-4-trifluoromethyl-benzamide hydrobromide] gave a melting point of 229.1 to 230.8 °C.
Next, `Cn1c(C(=O)N2CCN(Cc3ccccn3)CC2)cc2cc(Oc3ncc(NC(=O)c4ccc(C(F)(F)F)cc4)cn3)ccc21` [Example 382, N-{2-[1-Methyl-2-(4-pyridin-2-ylmethylpiperazine-1-carbonyl)-1H-indol-5-yloxy]pyrimidin-5-yl}-4-trifluoromethylbenzamide]: 181 to 182 °C; `Cn1c(C(=O)N2CCN(Cc3ccc(OC(CF)CF)cc3)CC2)cc2ccc(Oc3ccc(NS(=O)(=O)C4=CC=C(Cl)C(C)(Cl)C4)cn3)cc21` (centres unmarked) [Example 506, 3,4-Dichloro-N-[6-(2-{4-[4-(2-fluoro-1-fluoromethylethoxy)-benzyl]piperazine-1-carbonyl}-1-methyl-1H-indol-6-yloxy)pyridin-3-yl]-M-methylbenzenesulfonamide]: 157.7 to 160.2 °C; `Br.Cn1c(C(=O)N2CCN(Cc3ccccc3)CC2)cc2cc(Oc3ccc(NCc4ccc(Cl)c(Cl)c4)cn3)ccc21` [Example 334, (4-Benzylpiperazin-1-yl)(5-{5-[(3,4-dichlorophenyl)methylamino]-pyridin-2-yloxy}-1-methyl-1H-indol-2-yl)methanone hydrobromide]: 209 to 217 °C.
For `Br.CCN(C(=O)c1ccc(C(F)(F)F)cc1)c1ccc(Oc2ccc3cc(C(=O)N4CCN(Cc5ccc(OCC(F)(F)F)cc5)CC4)n(C)c3c2)nc1` [Example 26, N-Ethyl-N-[6-(1-methyl-2-{4-[4-(2,2,2-trifluoroethoxy)benzyl]-piperazine-1-carbonyl}-1H-indol-6-yloxy)pyridin-3-yl]-4-tri-fluoromethylbenzamide hydrobromide], the melting point is 189.8 to 192.8 °C.
Next, `Br.Br.COc1ccc(CN2CCN(C(=O)c3cc4cc(Oc5ccc(NC(=O)c6ccc(C(F)(F)F)cn6)cn5)ccc4n3C)CC2)cc1` [Example 230, 5-Trifluoromethylpyridine-2-carboxylic acid (6-{2-[4-(4-methoxy-benzyl)piperazine-1-carbonyl]-1-methyl-1H-indol-5-yloxy}pyridin-3-yl)amide dihydrobromide]: 241 to 243 °C; `CCN(c1ccc(Oc2ccc3cc(C(=O)N4CCN(Cc5ccc(OCC(F)(F)F)cc5)CC4)n(C)c3c2)nc1)S(=O)(=O)c1ccc(Cl)c(Cl)c1.Cl`: 226.9 to 227.2 °C.
